Where “and” joins values, the source holds several entries; their conditions need not be identical. Equal values may be shown once.
Key:
[1] = biological target: T1, NhCam1 (cyclic oligoadenylate-activated membrane protein 1; WP_013033759) (Nitrosococcus halophilus, UniProt D5BXZ3, T97A); assay: ITC; format: binding
T1 construct: gene Nhal_2839; CARF domain, residues 67–206

[2] = biological target: T2, NhCam1 (cyclic oligoadenylate-activated membrane protein 1; WP_013033759) (Nitrosococcus halophilus, UniProt D5BXZ3, T183A/Y180A); assay: ITC; format: binding
T2 construct: gene Nhal_2839; CARF domain, residues 67–206

[3] = biological target: T3, NhCam1 (cyclic oligoadenylate-activated membrane protein 1; WP_013033759) (Nitrosococcus halophilus, UniProt D5BXZ3, M194A/P192A/V79A); assay: ITC; format: binding
T3 construct: gene Nhal_2839; CARF domain, residues 67–206

[4] = biological target: T4, NhCam1 (cyclic oligoadenylate-activated membrane protein 1; WP_013033759) (Nitrosococcus halophilus, UniProt D5BXZ3, N76A/S75A); assay: ITC; format: binding
T4 construct: gene Nhal_2839; CARF domain, residues 67–206

[5] = biological target: T5, NhCam1 (cyclic oligoadenylate-activated membrane protein 1; WP_013033759) (Nitrosococcus halophilus, UniProt D5BXZ3); assay: ITC; […] Å X-ray crystal structure; format: binding
T5 construct: gene Nhal_2839; CARF domain, residues 67–206 (ITC; Methods: 66–206); residues 42–206 (crystal); homodimer, one ligand per dimer
T5 sequence (D5BXZ3 67-206): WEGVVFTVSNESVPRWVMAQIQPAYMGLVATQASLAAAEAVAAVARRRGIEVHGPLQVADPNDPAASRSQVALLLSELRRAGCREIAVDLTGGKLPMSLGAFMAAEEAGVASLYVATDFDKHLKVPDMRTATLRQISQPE

[6] = biological target: MGSS–His6–TEV–NhCam1 (full-length NhCam1) (Nitrosococcus halophilus Nc4); assay: SEC-MALS; full-length Cam1 in DDM micelles, conjugate analysis; 25 mM Tris pH 8, 500 mM NaCl, 2 mM β-mercaptoethanol, 0.02% DDM
[7] = biological target: MvCam1-His (Methylomarium vadi); assay: cross-linking; in vivo in S. aureus, 2 mM DSS and BMH, 1 h at room temperature, with or without aTc; Western blot of lysates with anti-His6
[8] = biological target: NhCam1–His (Nitrosococcus halophilus Nc4); assay: as above
[9] = biological target: gpCam1-His (unknown Gammaproteobacterium); assay: as above

For `Nc1ncnc2c1ncn2[C@@H]1O[C@@H]2COP(=O)(O)O[C@H]3[C@@H](O)[C@H](n4cnc5c(N)ncnc54)O[C@@H]3COP(=O)(O)O[C@H]3[C@@H](O)[C@H](n4cnc5c(N)ncnc54)O[C@@H]3COP(=O)(O)O[C@H]3[C@@H](O)[C@H](n4cnc5c(N)ncnc54)O[C@@H]3COP(=O)(O)O[C@H]2[C@H]1O` [cA4], which Kd [1] is on record?
The Kd was 3.74 µM.

And the Kd [2]?
Its Kd is 4.5 µM.

And the Kd [3]?
Its Kd is 2.1 µM.

And the Kd [4]?
The Kd was 4 µM.

What about the Kd [5] of the same compound?
The Kd was 0.012 µM.

For “MGSS–His6–TEV–NhCam1 (full-length NhCam1) (natural protein)”, which stoichiometry N [6] is on record?
Its stoichiometry N is 4.

How did the stoichiometry N [7] turn out when MvCam1-His (natural protein) was run?
Its stoichiometry N is 2 and 4.

Which stoichiometry N [8] does the source give for NhCam1–His (natural protein) here?
Its stoichiometry N is 2 and 4.

How did the stoichiometry N [9] turn out when gpCam1-His (natural protein) was run?
Its stoichiometry N is 2 and 4.

Source: article PMC10808066, “The CRISPR effector Cam1 mediates membrane depolarization for phage defence” (Nature, 2024)
